{"source": "ChEMBL document CHEMBL1201862", "about": "“PubChem BioAssay data set” (2004)", "key": {"[1]": {"molecular_target": "Large T antigen (Simian virus 40, UniProt P03070)", "sequence (P03070 whole entry)": "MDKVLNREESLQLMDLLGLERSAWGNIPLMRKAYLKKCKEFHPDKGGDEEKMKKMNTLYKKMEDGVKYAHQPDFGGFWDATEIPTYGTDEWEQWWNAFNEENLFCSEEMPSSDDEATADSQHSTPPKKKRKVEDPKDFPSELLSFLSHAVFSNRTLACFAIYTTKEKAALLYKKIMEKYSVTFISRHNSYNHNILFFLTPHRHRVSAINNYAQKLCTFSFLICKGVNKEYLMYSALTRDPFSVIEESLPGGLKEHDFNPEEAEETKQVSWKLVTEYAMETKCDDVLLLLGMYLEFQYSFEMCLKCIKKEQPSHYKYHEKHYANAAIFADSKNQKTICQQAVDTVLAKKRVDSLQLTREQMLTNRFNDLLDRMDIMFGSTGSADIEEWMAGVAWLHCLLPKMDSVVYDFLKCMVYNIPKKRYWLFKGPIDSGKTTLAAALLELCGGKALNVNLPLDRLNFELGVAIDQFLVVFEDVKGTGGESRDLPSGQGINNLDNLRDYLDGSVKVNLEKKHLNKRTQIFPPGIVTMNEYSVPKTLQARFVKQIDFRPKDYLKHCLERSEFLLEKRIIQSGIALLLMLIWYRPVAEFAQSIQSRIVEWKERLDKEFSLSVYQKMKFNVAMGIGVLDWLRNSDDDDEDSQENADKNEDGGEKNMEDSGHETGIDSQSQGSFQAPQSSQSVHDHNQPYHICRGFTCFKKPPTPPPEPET", "format": "functional, Betapolyomavirus macacae"}, "[2]": {"molecular_target": "T1, Protein RecA (Mycobacterium tuberculosis, UniProt P9WHJ3)", "T1 sequence (P9WHJ3 whole entry)": "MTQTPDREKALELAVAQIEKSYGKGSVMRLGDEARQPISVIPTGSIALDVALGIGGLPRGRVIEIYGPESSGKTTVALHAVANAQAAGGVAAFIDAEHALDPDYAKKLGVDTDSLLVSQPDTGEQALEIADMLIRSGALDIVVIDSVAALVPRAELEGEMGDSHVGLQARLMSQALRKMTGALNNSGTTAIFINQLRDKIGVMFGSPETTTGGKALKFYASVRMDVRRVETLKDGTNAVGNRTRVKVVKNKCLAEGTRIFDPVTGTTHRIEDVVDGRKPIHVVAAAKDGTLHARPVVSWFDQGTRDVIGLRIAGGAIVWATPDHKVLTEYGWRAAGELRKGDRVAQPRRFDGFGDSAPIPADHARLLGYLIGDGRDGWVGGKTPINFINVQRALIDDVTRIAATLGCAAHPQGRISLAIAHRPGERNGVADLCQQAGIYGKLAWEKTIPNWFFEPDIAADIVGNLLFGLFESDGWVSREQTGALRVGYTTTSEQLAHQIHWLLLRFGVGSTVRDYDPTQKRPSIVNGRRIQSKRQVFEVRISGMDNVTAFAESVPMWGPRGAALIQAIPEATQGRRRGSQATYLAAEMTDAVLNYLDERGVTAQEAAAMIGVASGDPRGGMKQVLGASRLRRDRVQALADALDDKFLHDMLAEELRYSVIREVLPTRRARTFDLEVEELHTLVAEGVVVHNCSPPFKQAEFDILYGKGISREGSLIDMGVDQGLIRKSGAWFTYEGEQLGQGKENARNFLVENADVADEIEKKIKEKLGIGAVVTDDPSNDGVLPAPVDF", "experiment": "Fluorescence Cell-Free Homogeneous Dose Retest to Identify Inhibitors of RecA-Intein Splicing Activity. [Related pubchem assays (depositor defined):AID2097, AID2223, AID489010, AID492950]", "format": "functional"}, "[3]": {"molecular_target": "T2, Replicative DNA helicase DnaB (Mycobacterium tuberculosis, UniProt P9WMR3)", "T2 sequence (P9WMR3 whole entry)": "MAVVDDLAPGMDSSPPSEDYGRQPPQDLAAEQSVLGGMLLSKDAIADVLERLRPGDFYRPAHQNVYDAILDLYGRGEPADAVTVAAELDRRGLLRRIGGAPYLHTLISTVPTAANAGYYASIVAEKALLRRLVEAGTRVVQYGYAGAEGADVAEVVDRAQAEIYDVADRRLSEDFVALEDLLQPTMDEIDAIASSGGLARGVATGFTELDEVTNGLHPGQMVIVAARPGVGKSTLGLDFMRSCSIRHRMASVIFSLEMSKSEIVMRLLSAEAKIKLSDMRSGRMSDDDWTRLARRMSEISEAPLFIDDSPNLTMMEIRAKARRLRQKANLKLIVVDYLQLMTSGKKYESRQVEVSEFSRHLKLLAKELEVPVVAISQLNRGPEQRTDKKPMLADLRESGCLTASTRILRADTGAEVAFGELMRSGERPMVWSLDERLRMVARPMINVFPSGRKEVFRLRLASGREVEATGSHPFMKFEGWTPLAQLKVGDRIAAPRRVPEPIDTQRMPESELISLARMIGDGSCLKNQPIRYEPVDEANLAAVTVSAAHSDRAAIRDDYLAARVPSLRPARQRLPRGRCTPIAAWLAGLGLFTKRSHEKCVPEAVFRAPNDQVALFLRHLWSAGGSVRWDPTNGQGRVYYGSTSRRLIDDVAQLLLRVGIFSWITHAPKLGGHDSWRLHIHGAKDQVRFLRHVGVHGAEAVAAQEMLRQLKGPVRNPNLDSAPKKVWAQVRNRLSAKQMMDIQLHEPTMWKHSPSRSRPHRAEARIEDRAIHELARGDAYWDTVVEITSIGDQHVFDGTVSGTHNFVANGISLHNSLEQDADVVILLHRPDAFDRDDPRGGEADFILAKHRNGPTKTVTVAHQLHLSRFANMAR", "experiment": "DnaB intein splicing inhibitors, dose response, biochemical, cell-free fluorescence (AID 449749)", "format": "functional"}, "[4]": {"molecular_target": "Transthyretin (Homo sapiens, UniProt P02766)", "experiment": "Luminescence-based cell-based high throughput dose response assay to identify activators of Transthyretin (TTR) transcription.", "format": "functional"}, "[5]": {"molecular_target": "Metabotropic glutamate receptor 5 (Rattus norvegicus, UniProt P31424)", "sequence (P31424 whole entry)": "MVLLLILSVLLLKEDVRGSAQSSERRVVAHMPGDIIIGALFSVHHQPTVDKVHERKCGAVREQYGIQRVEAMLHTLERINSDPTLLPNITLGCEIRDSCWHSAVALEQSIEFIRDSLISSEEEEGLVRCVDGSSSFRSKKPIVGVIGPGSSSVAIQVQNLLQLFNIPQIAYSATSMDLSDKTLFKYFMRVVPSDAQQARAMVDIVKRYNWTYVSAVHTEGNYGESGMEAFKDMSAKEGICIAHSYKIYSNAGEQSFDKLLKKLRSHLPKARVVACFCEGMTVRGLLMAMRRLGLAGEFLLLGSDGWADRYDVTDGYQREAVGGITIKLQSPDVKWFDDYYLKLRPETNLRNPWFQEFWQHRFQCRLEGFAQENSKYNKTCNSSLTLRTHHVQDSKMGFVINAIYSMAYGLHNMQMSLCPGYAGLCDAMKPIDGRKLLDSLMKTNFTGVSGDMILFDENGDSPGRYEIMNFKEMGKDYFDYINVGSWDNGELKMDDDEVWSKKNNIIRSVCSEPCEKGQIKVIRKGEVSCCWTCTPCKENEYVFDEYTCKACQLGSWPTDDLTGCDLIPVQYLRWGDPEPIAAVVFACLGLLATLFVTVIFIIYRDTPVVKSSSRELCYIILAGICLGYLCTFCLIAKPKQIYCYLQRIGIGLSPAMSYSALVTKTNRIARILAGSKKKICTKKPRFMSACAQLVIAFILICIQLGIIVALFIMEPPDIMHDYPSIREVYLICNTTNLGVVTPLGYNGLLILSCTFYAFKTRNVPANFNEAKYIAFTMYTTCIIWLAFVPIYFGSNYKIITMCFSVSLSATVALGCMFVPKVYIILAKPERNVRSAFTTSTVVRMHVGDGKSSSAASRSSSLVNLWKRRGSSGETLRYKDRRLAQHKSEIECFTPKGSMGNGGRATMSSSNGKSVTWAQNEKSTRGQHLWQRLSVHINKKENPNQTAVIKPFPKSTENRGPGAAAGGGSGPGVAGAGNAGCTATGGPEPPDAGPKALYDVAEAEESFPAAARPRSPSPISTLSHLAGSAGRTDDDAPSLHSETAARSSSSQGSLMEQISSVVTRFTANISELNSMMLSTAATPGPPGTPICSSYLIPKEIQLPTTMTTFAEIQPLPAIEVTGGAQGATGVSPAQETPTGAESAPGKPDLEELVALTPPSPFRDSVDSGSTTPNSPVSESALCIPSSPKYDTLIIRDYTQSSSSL", "experiment": "Identification of a glycine sulfonamide based non-MPEP site positive allosteric potentiator (PAM) of mGlu5 (calcium_assay).", "format": "functional"}, "[6]": {"experiment": "cells", "details": "HEK293"}, "[7]": {"test_system": "HEK293", "experiment": "viability loss in HEK293T cells – cell-based, ATP luminescence, cherry-pick samples, cytotoxicity control, dose response (AID 687005);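 note: cells exposed to compound for 48 hours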", "format": "functional", "details": "Homo sapiens"}, "[8]": {"experiment": "HEK293 Cytotoxicity Assay Measured in Cell-Based System Using Plate Reader - 7071-01_Inhibitor_Dose_CherryPick_Activity_Set2.", "format": "functional"}, "[9]": {"experiment": "Luminescence Cell-Based Dose Response HTS to Identify Activators of Luciferase Translation or Activity in H4 […] Cells. [Related pubchem assays: 1829 (Project Summary), 1814 (Primary HTS)]", "format": "functional"}, "[10]": {"experiment": "Luminescence Cell-Based Dose Confirmation HTS to Identify Activators of 5'UTR Stem-Loop Driven Alpha-Synuclein mRNA Translation in H4 Neuroglioblastoma Cells. [Related pubchem assays: 1829 (Project Summary), 1814 (Primary HTS)]", "format": "functional"}, "[11]": {"test_system": "H4", "experiment": "Luminescence Cell-Based Dose Response HTS to Identify Activators of 5'UTR Stem-Loop Driven Prion Protein mRNA Translation in H4 Neuroglioblastoma Cells. [Related pubchem assays: 1829 (Project Summary), 1814 (Primary HTS)]", "format": "functional", "details": "Homo sapiens"}, "[12]": {"molecular_target": "Paired box protein Pax-8 (Homo sapiens, UniProt Q06710)", "sequence (Q06710 whole entry)": "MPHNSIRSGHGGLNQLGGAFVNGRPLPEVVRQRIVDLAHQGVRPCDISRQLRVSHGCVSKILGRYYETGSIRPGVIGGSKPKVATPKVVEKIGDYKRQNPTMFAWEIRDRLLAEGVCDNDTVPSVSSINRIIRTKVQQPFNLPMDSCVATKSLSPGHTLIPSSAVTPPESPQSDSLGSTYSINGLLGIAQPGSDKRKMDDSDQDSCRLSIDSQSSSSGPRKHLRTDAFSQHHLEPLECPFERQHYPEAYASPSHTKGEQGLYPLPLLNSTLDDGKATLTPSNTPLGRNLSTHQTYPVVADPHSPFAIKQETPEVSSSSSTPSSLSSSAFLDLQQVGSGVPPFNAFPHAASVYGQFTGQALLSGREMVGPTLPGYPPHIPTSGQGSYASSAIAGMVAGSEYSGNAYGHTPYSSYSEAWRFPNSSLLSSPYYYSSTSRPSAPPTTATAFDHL", "experiment": "PAX8 transcriptional activity inhibition in RMG-I – RMG-I cells, luciferase, cherry-pick, dose response (AID 687027);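 note: luciferase reporter driven by Pax8 target thyroperoxidase promoter measured by SteadyGlo luminescence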", "format": "functional, cell-based"}, "[13]": {"experiment": "A2780 cell killing – plate reader, dry powder samples, cytotoxicity control, dose response (AID 743046)", "format": "functional, cell-based"}, "[14]": {"experiment": "OVCAR8 cell viability loss – plate reader, dry powder samples, PAX8 project, dose response (AID 743197)", "format": "functional, cell-based", "details": "OVCAR-8"}, "[15]": {"experiment": "OVCAR-3 cell viability loss – plate reader, dry powder samples, PAX8 inhibitor project, dose response (AID 743044)", "format": "functional, cell-based"}, "[16]": {"experiment": "IGROV1 cell killing – plate reader, dry powder samples, PAX8 inhibitor project, dose response (AID 743043)", "format": "functional, cell-based", "details": "IGROV-1"}, "[17]": {"experiment": "toxicity toward immortalized ovarian surface epithelium – cell-based, plate reader, dry powder samples, cytotoxicity control for PAX8 inhibitor project, dose response (AID 743045)", "format": "functional"}}, "note": "Active and inactive are the calls of the source.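 Throughout, for IC50: Confirmatory-stage PubChem screen for compounds that inhibit SV40 T antigen.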"}
{"molecule": "O=C(CCl)c1cc2c3c(c1)CC(=O)N3CCC2", "values": [{"measurement": "IC50", "setting": "[1]", "result": "40.6 µM (active)"}, {"measurement": "EC50", "setting": "[2]", "result": "11.7 µM (active)"}, {"measurement": "AC50", "setting": "[3]", "result": "35.9 µM (active)"}, {"measurement": "EC50", "setting": "[4]", "result": "> 167 µM (inactive)"}]}
{"molecule": "CN(C(=O)CN(c1ccccc1Cl)S(C)(=O)=O)c1ccccc1", "values": [{"measurement": "EC50", "setting": "[5]", "result": "10 µM (inconclusive)"}]}
{"molecule": "CSc1nc2ccccc2n1CCOc1ccccc1", "values": [{"measurement": "AC50", "setting": "[6]", "result": "> 52 µM (inactive)"}]}
{"molecule": "O=C(C[C@@H]1CC[C@H]2[C@@H](COC[C@@H](O)CN2Cc2ccc(Cl)cc2)O1)NCc1cccc(F)c1", "values": [{"measurement": "AC50", "setting": "[7]", "result": "21.4 µM (active)"}, {"measurement": "AC50", "setting": "[8]", "result": "21.4 µM (active)"}]}
{"molecule": "c1ccc(Sc2ncnc3c2oc2ccccc23)nc1", "values": [{"measurement": "EC50", "setting": "[9]", "result": "26.6 µM (active)"}, {"measurement": "EC50", "setting": "[10]", "result": "4.69 µM (active)"}, {"measurement": "EC50", "setting": "[4]", "result": "> 167 µM (inactive)"}, {"measurement": "EC50", "setting": "[11]", "result": "90.1 µM (active)"}]}
{"molecule": "COc1ccc(S(=O)(=O)Nc2ccc3c(c2)C(=O)N([C@H](C)CO)C[C@H](C)[C@@H](CN(C)S(=O)(=O)c2ccc(C)cc2)OCCCC[C@H](C)O3)cc1", "values": [{"measurement": "AC50", "setting": "[12]", "result": "6.27 µM (active)"}, {"measurement": "AC50", "setting": "[13]", "result": "44 µM (active)"}, {"measurement": "AC50", "setting": "[14]", "result": "14.8 µM (active)"}, {"measurement": "AC50", "setting": "[15]", "result": "11.8 µM (active)"}, {"measurement": "AC50", "setting": "[16]", "result": "33.5 µM (active)"}, {"measurement": "AC50", "setting": "[17]", "result": "9.47 µM (active)"}]}
